# Legend:
# [1] = Plasma ixazomib pharmacokinetics (LC/MS/MS, noncompartmental); type: in vivo
# Experimental: Blood samples for determination of plasma ixazomib concentrations for pharmacokinetic analysis (3 mL) and for measurement of whole blood 20S proteasome activity (1 mL) were collected at the following timepoints for all patients in the dose-escalation cohort and for the first 12 patients completing cycle 1 while receiving protocol-specified treatment at the MTD: pre-dose (within 1 h) on days 1, 4, 8, and 11 of cycle 1, and on day 1 of cycle 2; and on days 1 and 11, cycle 1, at 5, 15 and 30 min, and 1, 2, 4, 9, 24, 48, 96 (day 11 only), 120 (day 11 only), and 168 (day 11 only) h post-dose. A limited sampling schedule was employed for the remaining patients in the MTD expansion cohorts.
# Plasma concentrations of ixazomib were measured using a good laboratory practice-validated liquid chromatography/tandem mass spectrometry (LC/MS/MS) assay with a lower limit of quantification of 0.5 ng/mL. Whole blood 20S proteasome activity (expressed as percent proteasome inhibition relative to baseline) was measured using an established fluorogenic assay, which evaluates the chymotrypsin-like activity of the β5 subunit of the 20S proteasome, the primary target of ixazomib. […]
# All efficacy and safety data were summarized using descriptive statistics. Pharmacokinetic and pharmacodynamic parameters were calculated using noncompartmental methods (WinNonlin software v5.3).
# ATF-3 = ATF-3 IHC staining in pre- and post-dose tumor biopsies; type: in vivo, human; details: TPEC, 1.76 mg/m^2; seven evaluable tumor pairs
# Experimental: This open-label, non-randomized, dose-escalation phase 1 study was conducted at 7 sites in the United States and Canada, with patients enrolled from March 02, 2009 to January 10, 2012. The primary objective of the trial was to determine the safety profile, establish the maximum tolerated dose (MTD), and inform the recommended phase 2 dose of IV ixazomib in patients with non-hematologic malignancies. Secondary objectives were to characterize the pharmacokinetics and pharmacodynamics of IV ixazomib in blood and to evaluate disease response. Drug distribution and target engagement in post-dose tumor samples was measured by determining the increase in ATF-3 levels in post-dose tumor samples compared with pre-dose samples by immunohistochemistry (IHC).
# Tumor biopsies were analyzed for the presence of ixazomib using a quantified LC/MS/MS methodology validated in xenograft models. Expression of ATF-3 was measured in the TPEC using an IHC staining assay developed and validated using preclinical and human primary tumor samples. For this assay, formalin-fixed, paraffin-embedded tumor biopsy samples were obtained pre- and post-treatment (at 4–24 h post-dosing on day 1 or day 4 of cycle 1). […] After staining, whole slides were scanned and analyzed to calculate the percentage ATF-3-positive area for each section using the Genie™ (Aperio® ePathology Solutions) pattern recognition tool. […]
# [2] = tested on: patients with advanced non-hematologic malignancies; assay: Dose-limiting toxicities in cycle 1 and determination of MTD; type: in vivo
# Experimental: The dose-escalation cohort comprised patients with any non-hematologic malignancy. The four MTD expansion cohorts were limited to patients with non-small cell lung cancer (NSCLC), head and neck cancer (squamous cell cancer), soft tissue sarcoma, and prostate cancer, respectively. In addition, the TPEC was open to patients with non-hematologic malignancy that could be safely biopsied. Dose escalation initially proceeded from a starting dose of 0.125 mg/m^2 of body surface area, with one patient per dose level and dose doubling up to a dose of 1.0 mg/m^2. Dose doubling was permitted until one of the following occurred: one patient experienced a dose-limiting toxicity (DLT) during cycle 1; any two patients experienced a drug-related adverse event (AE) of grade ≥2 during cycle 1; or the dose level of 1 mg/m^2 had been evaluated. Dose escalation then proceeded in 33 % increments following a standard 3 + 3 schema based on the occurrence of DLTs in cycle 1. […]
# The safety population included all patients who received ≥1 dose of ixazomib, and the DLT-evaluable population, which was used for determination of the MTD, comprised patients who received all cycle 1 doses of ixazomib or experienced a DLT in cycle 1. […] Approximately 16 response-evaluable patients were planned to be evaluated in each MTD expansion cohort.
smiles,measurement,setting,value
CC(C)C[C@H](NC(=O)CNC(=O)c1cc(Cl)ccc1Cl)B(O)O [ixazomib],C0 (extrapolated immediate post-bolus plasma concentration),"[1]; day 1, 2.34 mg/m^2 IV, n = 1, individual value",901 ng/mL
same,t½ (terminal disposition phase half-life),"[1]; day 11, 1.33 mg/m^2 IV, n = 3, geometric mean (% CV)",145 (19) h
same,Decrease of mean plasma concentrations,"[1]; human, in vivo, 8 h",approximately 90%
same,Accumulation of ixazomib,"[1]; human, in vivo, 11 day of cycle 1",approximately 3 fold
same,half-life,"[1]; human, in vivo, iv",91.2 to 173 h
same,C0,"[1]; human, in vivo, iv, 0.125 mg/m2, C0 (extrapolated immediate post-bolus plasma concentration)",27.1 ng/mL
same,AUC(0-t),"[1]; human, in vivo, iv, 0.25 mg/m2, AUC0–72",60.9 ng·h/mL
same,C0,"[1]; human, in vivo, iv, 0.25 mg/m2, C0 (extrapolated immediate post-bolus plasma concentration)",69 ng/mL
same,half-life,"[1]; human, in vivo, iv, 1 mg/m2",172 h
same,C0,"[1]; human, in vivo, iv, 1 mg/m2, C0 (extrapolated immediate post-bolus plasma concentration)",273 ng/mL
same,C0,"[1]; human, in vivo, iv, 1.33 mg/m2, C0 (extrapolated immediate post-bolus plasma concentration)",390 ng/mL
same,half-life,"[1]; human, in vivo, iv, 1.76 mg/m2",110 h
same,C0,"[1]; human, in vivo, iv, 1.76 mg/m2, C0 (extrapolated immediate post-bolus plasma concentration)",556 ng/mL
same,half-life,"[1]; human, in vivo, iv, 2.34 mg/m2",90.8 h
same,C0,"[1]; human, in vivo, iv, 2.34 mg/m2, C0 (extrapolated immediate post-bolus plasma concentration)",869 ng/mL
same,Plasma exposure versus dose,[1]; in vivo,appeared to increase proportionally with increasing ixazomib dose
same,Paired tumor samples with statistically significant increase in post-dose ATF-3 levels (p <0.05),ATF-3,Six of the seven
same,MTD (maximum tolerated dose),"[2]; IV on days 1, 4, 8, and 11 of a 21-day cycle",1.76 mg/m^2
same,Patients who experienced DLTs,[2]; in vivo,Five

# Source: publication PMC4435632, “Phase 1 study of ixazomib, an investigational proteasome inhibitor, in advanced non-hematologic malignancies” (Investigational New Drugs, 2015)
